Assay results from patent publication US20150141375A1 (priority 2009, published 2015).
Several values for one entry are separate records, joined by “and”; a condition that tells them apart may be missing. Identical values can stand only once. Entries after “also recorded” stand apart in the source; their conditions may differ.

Key:
[1] = 3-way crossover bioavailability / food effect study in healthy volunteers; format: in vivo, human
Method: An open-label, 3-way crossover study in healthy volunteers comparing the bioavailability of CMX001 tablet versus solution formulation and the effect of food on CMX001 pharmacokinetics was completed. 24 healthy volunteers received 40 mg tablets (fed), 40 mg tablets (fasted), and 40 mg as a solution (fasted). […] Exposure as indicated by AUC was unchanged.

[2] = Clearance and organ distribution in mouse; format: in vivo; settings: oral 5 mg/kg [C2-14C]CMX001, four hours
HSV-2, strain MS [3] = settings: previous work; cited from earlier work
Mad-4 JCV = assay: JCV (Mad-4) initial infection of SVG cells (in situ DNA hybridization, qPCR)
ADV = assay: Retrospective analysis of EIND patients with AdV disease; format: in vivo, human
Method: The records of patients who were granted emergency investigational-new-drug approval for CMX001 for treatment of AdV were analyzed retrospectively. Of the 16 patients with AdV disease treated with CMX001, 13 had data available for ≧4 weeks after starting CMX001. Doses of CMX001 ranged from approximately 1 mg/kg once weekly to 4 mg/kg twice weekly. Adenovirus qPCR was performed at VireCor (9 cases), Focus Diagnostics (2) and Molecular Virology Laboratory, University of Washington (2). Disseminated AdV disease was defined by the isolation of the virus from 2 or more sites, including blood. At the end of CMX001 treatment, virologic response (VR) was defined as either ≧99% drop in plasma VL from baseline or undetectable plasma virus. The Wilcoxon signed rank test was used to evaluate whether VL changed from baseline to weeks 1, 2, 4, 6, and 8. Logistic regression models were employed to evaluate possible associations between covariates and VR.

PK comparison, rabbit = settings: in vivo, 2 mg/kg, calculated from doses of 5 and 10 mg/kg, analyte = label, after CMX001
Excerpt: Table 4 illustrates the PK comparison of CMX001 with CMX021 and CMX064 for mouse, rabbit and human.

adenovirus = assay: First fifteen EIND patients: adenovirus; settings: individual patients
[4] = Oral toxicology studies, nephrotoxicity; format: in vivo, mice, rats, rabbits and monkeys
Excerpt: In addition, over twenty-one toxicology studies have been conducted in mice, rats, rabbits and monkeys with CMX001 being delivered by the oral route.

HSV-2, strain MS [5] = assay: Mortality of BALB/c mice infected intranasally with HSV-2, strain MS; format: in vivo
Method: Animals: BALB/c, female mice, 3-4 weeks of age.
Treatments were administered to mice for 7 consecutive days beginning 72 hr post viral inoculation by oral gavage using a 0.2 ml volume. CMX001 was administered once daily and ACV was given twice daily at approximately 12 hr intervals.
Mortality rates analyzed by Fisher's exact test; Mean day of death (MDD) by Mann-Whitney U rank sum.

BK Virus = assay: BK virus replication in RPTECs, viral DNA by qPCR after 5 days; format: cell-based; settings: Betapolyomavirus hominis, RPTEC
Method: To test the ability of CMX001 to inhibit replication of BK virus, stocks of BK virus were prepared in HFF cells and dilutions of the virus stocks were used to infect primary human renal tubular epithelial cells (RPTECs). Drug dilutions were then added to the wells containing the infected cells and the plates were incubated for 5 days. Total DNA was prepared from the plates and viral DNA was quantified by qPCR.

## CCCCCCCCCCCCCCCCOCCCOP(=O)(O)CO[C@H](CO)Cn1ccc(N)nc1=O [CMX001, Hexadecyloxypropyl-cidofovir]
CMV; 2 of 5 patients without UL54 mutations
  average reduction in CMV by PCR: 1.2 log 10
CMV; 4 weeks, 7 patients
  median reduction in VL: greater than 1.2 log 10
CMV; patients with UL54 mutation (L501F and A987G)
  1 log reduction in viremia at the last time point: Neither of two patients
CMV; patients without mutations in CMV UL54 (3 of 5)
  complete response: 60%
CMV; two patients with pre-existing renal insufficiency
  dose adjustment for kidney function: no dose adjustment was needed based on kidney function
[1]; 40 mg
  adverse events: no serious adverse events
  exposure as indicated by AUC: unchanged
[1]; 40 mg tablets
  reduction of plasma Cmax by a high fat meal: approximately 40%
[1]; 40 mg, fasted
  delay of Tmax, tablet versus liquid formulation: ~1 h
[2]
  availability and distribution: orally available and widely distributed
HSV-2, strain MS [3]
  optimal dose of CMX001 in this model: 5 mg/kg
Mad-4 JCV; 0.03 μM, 4 days
  reduction in percentage of JCV DNA containing cells: 46%
Mad-4 JCV; 0.07 μM, 4 days
  decrease in number of JCV genome copies (qPCR): 57%
  reduction in percentage of JCV DNA containing cells: 57%
Mad-4 JCV; 0.1 μM
  maximal suppression of JCV DNA containing cells, normalized to total cell number: 52%
Mad-4 JCV; 0.1 μM, 4 days
  reduction in percentage of JCV DNA containing cells: 71%
Mad-4 JCV; JC polyomavirus, read-out: EC50, JCV copy number
  EC50: 45 nM
ADV; 8 of 13 patients, VR = ≧99% drop in plasma VL or undetectable
  patients achieving virologic response (VR): 61.5%
ADV; 13 patients
  safety: No serious adverse events, gastro-intestinal, renal or bone marrow toxicity were reported
ADV; Week 1
  Median decrease from baseline, adenovirus viral load: 1.43 log10
ADV; Week 2
  Median decrease from baseline, adenovirus viral load: 1.71 log10
ADV; Week 4
  Median decrease from baseline, adenovirus viral load: 1.89 log10
ADV; Week 6
  Median decrease from baseline, adenovirus viral load: 2.44 log10
ADV; Week 8
  Median decrease from baseline, adenovirus viral load: 2.98 log10
PK comparison, rabbit
  AUC: 102 ng·h/mL
  Cmax: 18 ng/mL
adenovirus
  AdV viremia after 1st week: 3.2 Log 10 copies/mL and 5.4 Log 10 copies/mL and 5.0 Log 10 copies/mL and 2.3 Log 10 copies/mL and 7.4 Log 10 copies/mL and 3.4 Log 10 copies/mL and 5.2 Log 10 copies/mL and 2.0 Log 10 copies/mL
  AdV viremia after 1st week, change from pre-RX: 4.0 Log 10 copies/mL and 1.0 Log 10 copies/mL and 0.5 Log 10 copies/mL and 1.9 Log 10 copies/mL and 0.7 Log 10 copies/mL and 2.0 Log 10 copies/mL and 1.3 Log 10 copies/mL and 2.5 Log 10 copies/mL
  AdV viremia after 2nd week: 2.2 Log 10 copies/mL (2×) and 6.2 Log 10 copies/mL (2×) and 4.1 Log 10 copies/mL and 7.0 Log 10 copies/mL and 3.3 Log 10 copies/mL and 0 Log 10 copies/mL
  AdV viremia after 2nd week, change from pre-RX: 5.0 Log 10 copies/mL and 0.2 Log 10 copies/mL and 1.3 Log 10 copies/mL and 2.0 Log 10 copies/mL and 1.1 Log 10 copies/mL and 2.1 Log 10 copies/mL and 0.3 Log 10 copies/mL and 4.5 Log 10 copies/mL
  Outcome: Survived; also recorded: Death
[4]; over twenty-one toxicology studies, oral route
  indication of nephrotoxicity: In none of these studies
[4]; single and repeated dosing in animals and human volunteers, 0.1 mg/kg to 4.0 mg/kg
  evidence of nephrotoxicity: no evidence of nephrotoxicity
HSV-2, strain MS [5]; CMX001 0.125 mg/kg
  MDD: 9.0 ± 1.0
  Mortality Number: 13/15
  Mortality Percent: 87%
HSV-2, strain MS [5]; CMX001 0.42 mg/kg
  MDD: 9.8 ± 2.6
  Mortality Number: 12/15
  Mortality Percent: 80%
HSV-2, strain MS [5]; CMX001 1.25 mg/kg
  MDD: 9.4 ± 2.9
  Mortality Number: 9/15
  Mortality Percent: 60%
BK Virus; Virus Dilution 1:10
  EC50: 16 nM
BK Virus; Virus Dilution 1:50
  EC50: 3.5 nM
BK Virus; Virus Dilution 1:100
  EC50: 3.7 nM
